molecular target: T1, Human Polθ polymerase domain (aa1820-2590) (Homo sapiens, UniProt O75417); experiment: Polθ Polymerase Domain Kinact/KI Assay (PicoGreen); format: biochemical; settings: 0.8 nM Polθ, 100 nM DNA substrate, kobs vs [I] fit for 2-step covalent inhibitor
T1 construct: Human Polθ polymerase domain (aa1820-2590) was expressed in E. coli; made in house; host or cells: E. coli
T1 sequence (O75417 1820-2590): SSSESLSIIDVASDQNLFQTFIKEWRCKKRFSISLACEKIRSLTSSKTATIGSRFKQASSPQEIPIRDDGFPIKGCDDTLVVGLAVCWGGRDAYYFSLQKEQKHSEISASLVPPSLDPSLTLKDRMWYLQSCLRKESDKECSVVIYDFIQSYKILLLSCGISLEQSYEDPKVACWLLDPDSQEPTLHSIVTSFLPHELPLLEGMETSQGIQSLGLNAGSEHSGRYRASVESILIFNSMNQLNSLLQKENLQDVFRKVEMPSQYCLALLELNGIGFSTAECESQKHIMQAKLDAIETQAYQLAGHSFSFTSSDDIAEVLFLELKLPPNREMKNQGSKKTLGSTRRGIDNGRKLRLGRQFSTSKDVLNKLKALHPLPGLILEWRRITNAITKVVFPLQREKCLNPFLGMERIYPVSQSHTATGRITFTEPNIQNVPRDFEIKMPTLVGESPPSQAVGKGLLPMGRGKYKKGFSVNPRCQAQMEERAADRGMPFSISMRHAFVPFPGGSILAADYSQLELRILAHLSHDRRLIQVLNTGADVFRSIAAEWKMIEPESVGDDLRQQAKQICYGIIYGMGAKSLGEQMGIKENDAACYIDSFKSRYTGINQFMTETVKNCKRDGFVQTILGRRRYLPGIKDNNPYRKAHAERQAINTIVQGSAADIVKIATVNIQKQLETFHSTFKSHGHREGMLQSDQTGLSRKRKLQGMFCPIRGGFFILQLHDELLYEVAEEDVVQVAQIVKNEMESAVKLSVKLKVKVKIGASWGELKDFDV
Procedure, shortened: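 Time-dependent inhibition was followed by quenching reactions with EDTA at points up to 60 min, then staining product DNA with PicoGreen fluorescence. Reactions held 0.8 nM E. coli-expressed Polθ, 100 nM primed DNA substrate and […] at pH 7.5, 1% DMSO. kobs versus inhibitor concentration gave Kinact and KI.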

SMILES	Kinact/Kl
Cc1cc(C(F)(F)F)cc(N2C(=O)C[C@@H]3CN(Cc4cn5c(n4)CN(C(=O)/C=C/C(F)F)CC5)c4c(Cl)cccc4N(C)C(=O)[C@H]32)n1 [Example 306, (3aR,11aS)-6-chloro-5-((7-((E)-4,4-difluorobut-2-enoyl)-5,6,7,8-tetrahydroimidazo[1,2-a]pyrazin-2-yl)methyl)-10-methyl-1-(6-methyl-4-(trifluoromethyl)pyridin-2-yl)-1,3a,4,5,10,11a-hexahydro-2H-benzo[b]pyrrolo[2,3-f][1,4]diazocine-2,11(3H)-dione]	1.54e+06 M⁻¹ s⁻¹
Cc1cc(C(F)(F)F)cc(N2C(=O)C[C@@H]3CN(Cc4cn5c(n4)CN(C(=O)/C=C/C(F)(F)F)CC5)c4c(Cl)cccc4N(C)C(=O)[C@H]32)n1 [Example 307, (3aR,11aS)-6-chloro-10-methyl-1-(6-methyl-4-(trifluoromethyl)pyridin-2-yl)-5-((7-((E)-4,4,4-trifluorobut-2-enoyl)-5,6,7,8-tetrahydroimidazo[1,2-a]pyrazin-2-yl)methyl)-1,3a,4,5,10,11a-hexahydro-2H-benzo[b]pyrrolo[2,3-f][1,4]diazocine-2,11(3H)-dione]	1.35e+06 M⁻¹ s⁻¹
Cc1cc(C(F)(F)F)cc(N2C(=O)C[C@@H]3CN(Cc4cc(F)c(NC(=O)/C=C/CN(C)C)c(F)c4)c4c(Cl)cccc4N(C)C(=O)[C@H]32)n1 [Example 309, (E)-N-(4-(((3aR,11aS)-6-chloro-10-methyl-1-(6-methyl-4-(trifluoromethyl)pyridin-2-yl)-2,11-dioxo-1,2,3,3a,4,10,11,11a-octahydro-5H-benzo[b]pyrrolo[2,3-f][1,4]diazocin-5-yl)methyl)-2,6-difluorophenyl)-4-(dimethylamino)but-2-enamide]	1.02e+06 M⁻¹ s⁻¹
C=CC(=O)N1Cc2cc(CN3C[C@H]4CC(=O)N(c5cc(C(F)(F)F)cc(C)n5)[C@@H]4C(=O)N(C)c4cccc(C)c43)cnc2C1 [Example 312, (3aR,11aS)-5-((6-acryloyl-6,7-dihydro-5H-pyr-rolo[3,4-b]pyridin-3-yl)methyl)-6,10-dimethyl-1-(6-methyl-4-(trifluoro-methyl)pyridin-2-yl)-1,3a,4,5,10, 11a-hexahydro-2H-benzo[b]pyrrolo [2,3-f][1,4]diazo-cine-2,11(3H)-dione]	1.85e+06 M⁻¹ s⁻¹
C=CC(=O)N1Cc2ccc(CN3C[C@H]4CC(=O)N(c5cc(C(F)(F)F)cc(C)n5)[C@@H]4C(=O)N(C)c4cccc(C)c43)cc2C1 [Example 313, (3aR,11aS)-5-((2-acryloylisoindolin-5-yl)methyl)-6,10-dimethyl-1-(6-meth-yl-4-(trifluorometh-yl)pyridin-2-yl)-1,3a,4,5,10,11a-hexahydro-2H-benzo [b]pyrrolo[2,3-f] [1,4]diazocine-2,11(3H)-dione]	660000 M⁻¹ s⁻¹
C=CC(=O)N1Cc2nc(CN3C[C@H]4CC(=O)N(c5cc(C(F)(F)F)cc(C)n5)[C@@H]4C(=O)N(C)c4cccc(C)c43)n(CC)c2C1 [Example 314, (3aR,11aS)-5-((5-acryloyl-1-ethyl-1,4,5,6-tetrahydro-pyrrolo[3,4-d]imid-azol-2-yl)methyl)-6,10-dimethyl-1-(6-methyl-4-(trifluoro-methyl)pyridin-2-yl)-1,3a,4,5,10,11a-hexahydro-2H-benzo[b]pyrrolo [2,3-f][1,4]diazo-cine-2,11(3H)-dione]	1.74e+06 M⁻¹ s⁻¹
C=CC(=O)N1Cc2nc(CN3C[C@H]4CC(=O)N(c5cc(C(F)(F)F)cc(C)n5)[C@@H]4C(=O)N(C)c4cccc(C)c43)sc2C1 [Example 315, (3aR,11aS)-5-((5-acryloyl-5,6-di-hydro-4H-pyrrolo [3,4-d]thiazol-2-yl)-methyl)-6,10-dimeth-yl-1-(6-methyl-4-(trifluoromethyl)-pyridin-2-yl)-1,3a,4,5,10,11a-hexahydro-2H-benzo[b]pyrrolo [2,3-f][1,4]diazocine-2,11(3H)-dione]	1.79e+06 M⁻¹ s⁻¹
C=CC(=O)N1Cc2nc(CN3C[C@H]4CC(=O)N(c5cc(C(F)(F)F)cc(C)n5)[C@@H]4C(=O)N(C)c4cccc(C)c43)oc2C1 [Example 316, (3aR,11aS)-5-((5-acryloyl-5,6-di-hydro-4H-pyrrolo [3,4-d]oxazol-2-yl)-methyl)-6,10-dimethyl-1-(6-meth-yl-4-(trifluorometh-yl)pyridin-2-yl)-1,3a,4,5,10,11a-hexahydro-2H-benzo[b]pyrrolo [2,3-f][1,4]diazo-cine-2,11(3H)-dione]	610000 M⁻¹ s⁻¹

Further lines, results first:

Kinact/Kl	SMILES
3.93e+06 M⁻¹ s⁻¹	C=C(CN(C)C)C(=O)N1CC(C(F)CCCN2C[C@H]3CC(=O)N(c4cc(C(F)(F)F)cc(C)n4)[C@@H]3C(=O)N(C)c3cccc(Cl)c32)C1 (stereo partly drawn) [Example 300, (3aR,11aS)-6-chloro-5-(4-(1-(2-((dimethylamino)methyl)acryloyl)azetidin-3-yl)-4-fluorobutyl)-10-methyl-1-(6-methyl-4-(trifluoromethyl)pyridin-2-yl)-1,3a,4,5,10,11a-hexahydro-2H-benzo[b]pyrrolo[2,3-f][1,4]diazocine-2,11(3H)-dione]
1.78e+06 M⁻¹ s⁻¹	C=C(CN(C)C)C(=O)N1CC(CC(F)CCN2C[C@H]3CC(=O)N(c4cc(C(F)(F)F)cc(C)n4)[C@@H]3C(=O)N(C)c3cccc(Cl)c32)C1 (stereo partly drawn) [Example 301, (3aR,11aS)-6-chloro-5-(4-(1-(2-((dimethylamino)methyl)acryloyl)azetidin-3-yl)-3-fluorobutyl)-10-methyl-1-(6-methyl-4-(trifluoromethyl)pyridin-2-yl)-1,3a,4,5,10,11a-hexahydro-2H-benzo[b]pyrrolo[2,3-f][1,4]diazocine-2,11(3H)-dione]
3.04e+06 M⁻¹ s⁻¹	C=C(CN(C)C)C(=O)N1CC(CCC(F)CN2C[C@H]3CC(=O)N(c4cc(C(F)(F)F)cc(C)n4)[C@@H]3C(=O)N(C)c3cccc(Cl)c32)C1 (stereo partly drawn) [Example 302, (3aR,11aS)-6-chloro-5-(4-(1-(2-((dimethylamino)methyl)acryloyl)azetidin-3-yl)-2-fluorobutyl)-10-methyl-1-(6-methyl-4-(trifluoromethyl)pyridin-2-yl)-1,3a,4,5,10,11a-hexahydro-2H-benzo[b]pyrrolo[2,3-f][1,4]diazocine-2,11(3H)-dione]
1.8e+06 M⁻¹ s⁻¹	C#CC(=O)N1CC(F)(COCCN2C[C@H]3CC(=O)N(c4cc(C(F)(F)F)cc(C)n4)[C@@H]3C(=O)N(C)c3cccc(Cl)c32)C1 [Example 303, (3aR,11aS)-6-chloro-5-(2-((3-fluoro-1-propioloylazetidin-3-yl)methoxy)ethyl)-10-methyl-1-(6-methyl-4-(trifluoromethyl)pyridin-2-yl)-1,3a,4,5,10,11a-hexahydro-2H-benzo[b]pyrrolo[2,3-f][1,4]diazocine-2,11(3H)-dione]
1.87e+06 M⁻¹ s⁻¹	Cc1cc(C(F)(F)F)cc(N2C(=O)C[C@@H]3CN(CCOCC4(F)CN(C(=O)/C=C/CN(C)C)C4)c4c(Cl)cccc4N(C)C(=O)[C@H]32)n1 [Example 304, (3aR,11aS)-6-chloro-5-(2-((1-((E)-4-(dimethylamino)but-2-enoyl)-3-fluoroazetidin-3-yl)methoxy)ethyl)-10-methyl-1-(6-methyl-4-(trifluoromethyl)pyridin-2-yl)-1,3a,4,5,10,11a-hexahydro-2H-benzo[b]pyrrolo[2,3-f][1,4]diazocine-2,11(3H)-dione]
1.82e+06 M⁻¹ s⁻¹	C=C(CN(C)C)C(=O)N1CC(F)(COCCN2C[C@H]3CC(=O)N(c4cc(C(F)(F)F)cc(C)n4)[C@@H]3C(=O)N(C)c3cccc(Cl)c32)C1 [Example 305, (3aR,11aS)-6-chloro-5-(2-((1-(2-((dimethylamino)methyl)acryloyl)-3-fluoroazetidin-3-yl)methoxy)ethyl)-10-methyl-1-(6-methyl-4-(trifluoromethyl)pyridin-2-yl)-1,3a,4,5,10,11a-hexahydro-2H-benzo[b]pyrrolo[2,3-f][1,4]diazocine-2,11(3H)-dione]
280000 M⁻¹ s⁻¹	Cc1cc(C(F)(F)F)cc(N2C(=O)C[C@@H]3CN(Cc4ccc5c(c4)OCCN5C(=O)/C=C/CN(C)C)c4c(Cl)cccc4N(C)C(=O)[C@H]32)n1 [Example 308, (3aR,11aS)-6-chloro-5-((4-((E)-4-(dimethylamino)but-2-enoyl)-3,4-dihydro-2H-benzo[b][1,4]oxazin-7-yl)methyl)-10-methyl-1-(6-methyl-4-(trifluoromethyl)pyridin-2-yl)-1,3a,4,5,10,11a-hexahydro-2H-benzo[b]pyrrolo[2,3-f][1,4]diazocine-2,11(3H)-dione]
